Experimental findings from PubChem BioAssay (NCI) are described below.

Each structure is given as a SMILES string. Several values for one entry are separate records, joined by “and”; a condition that tells them apart may be missing. Equal entries are not always repeated.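 The compound was tested at five concentrations on cells cultured in 96-well plates, with a 48-hour exposure period. GI50 marks 50% less growth. TGI: total growth inhibition.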

What all share (assay): NCI-60 cell line screen, 48 h
The test system of experiment [1] is A498 renal.
For experiment [2], the system named is HT29 colon.
In experiment [3] the test system is KM12 colon.
In experiment [4] the test system is MCF7 breast.
Experiment [5] has as its system MDA-MB-435.
Experiment [6] has as its system MOLT-4 leukemia.
Experiment [7] has as its system SF-295 CNS.
Experiment [8] concerns SK-MEL-5 melanoma.
For experiment [9], the system named is SK-OV-3 ovarian.
Experiment [10] concerns SNB-75 CNS.

On to `COc1ccc(/C=C(/C(=O)N2CCN(c3ccc(C)cc3)CC2)c2cc(OC)c(OC)c(OC)c2)cc1N`, for which the GI50 was 0.0571 µM in experiment [1]; 0.339 µM in [2]; 0.314 µM in experiment [3]; 0.228 µM in experiment [4]; 0.108 µM in experiment [5]; 0.437 µM in [6]. Further, the GI50 in experiment [7] was 0.287 µM; in [8], 0.228 µM; in experiment [9] it was 0.755 µM; in experiment [10], 0.509 µM. The TGI is 2.3 µM in experiment [1]; > 39.2 µM in experiment [2]; > 100 µM in experiment [3]; > 100 µM in [4]; > 100 µM in experiment [6]; > 100 µM in [7]. The figures for the TGI in [8], in [9] and in [10] were 0.661 µM, > 100 µM and > 100 µM, respectively.

For the molecule `CS(=O)(=O)OCCCCOS(C)(=O)=O`, the GI50 in experiment [1] was > 883 µM; in experiment [2], > 846 µM; in experiment [3], > 872 µM; in [4], 534 µM; in [5], > 250 µM; in experiment [7] it was 423 µM. Besides, the GI50 in experiment [8] is 520 µM; in experiment [9], 804 µM; in experiment [10], 431 µM. In addition, the TGI was 249 µM and > 1000 µM in experiment [1]; 250 µM and > 1000 µM in [2]; > 1000 µM in experiment [3]; 250 µM and > 1000 µM in [4]; > 1000 µM in [5]; 233 µM and 992 µM in experiment [6]. For the same molecule, the TGI in experiment [7] is 237 µM and > 1000 µM; in [8], 242 µM and > 1000 µM; in experiment [9], > 1000 µM; in experiment [10] it was 221 µM and > 1000 µM.

`O=C1c2cccc3c([N+](=O)[O-])ccc(c23)C(=O)N1CCCCl`: the GI50 was > 10 µM in [1]; 4.25 µM in experiment [2]; 6.11 µM in [3]; 3.03 µM in experiment [4]; > 10 µM in [5]; 2.41 µM in experiment [6]. Moreover, the GI50 was > 10 µM in experiment [7], > 10 µM in experiment [8], > 10 µM in experiment [9] and 2.86 µM in [10]. Besides, the TGI is > 10 µM in experiment [1]; > 10 µM in experiment [2]; > 10 µM in [3]; > 10 µM in experiment [4]; > 10 µM in experiment [5]; 5.95 µM in [6]. Besides, the TGI in experiment [7], in experiment [8], in [9] and in experiment [10] was > 10 µM throughout.

Take `CC(C)(C)n1nc(C2CC2)cc1NC(=O)Nc1ccc(Cl)cc1`: the TGI in [1], in experiment [2], in [3], in experiment [4], in experiment [5] and in experiment [6] was > 100 µM in each case. In addition, the TGI in experiment [7], in experiment [8], in experiment [9] and in experiment [10] was > 100 µM each time.

For the molecule `Cc1cc(NCCCNc2ccnc3cc(Cl)ccc23)nc(Nc2ccc(C(=O)N3CCCCC3)cc2)n1`, the GI50 in [1] is 1.89 µM; in experiment [2], 2.33 µM; in [3], 2.96 µM; in [4] it was 1.82 µM; in [5], 1.71 µM; in experiment [6] it was 2.86 µM. Moreover, the GI50 in [7] was 2.02 µM; in [8], 1.93 µM; in experiment [9], 3.14 µM; in [10], 1.69 µM. Besides, the TGI in experiment [1] is 5.07 µM; in [2], 7.2 µM; in experiment [3], 11.6 µM; in [4], 4.09 µM; in experiment [5] it was 3.2 µM; in [6], 13.5 µM. Further, the TGI in [7] came out at 3.89 µM; in experiment [8] it was 3.34 µM; in [9], 8.23 µM; in [10] it was 3.69 µM.

For the molecule `O=C1C2=C(C(=O)c3c(O)ccc(O)c31)N(c1cccnc1)Cc1ccccc1O2`, the GI50 in experiment [1] is 2.37 µM; in [2] it was 0.313 µM; in [3], 1.33 µM; in [4] it was 0.191 µM; in experiment [5] it was 0.398 µM; in experiment [6], 0.21 µM. Further, the GI50 in [7] was 2.43 µM; in experiment [8], 1.33 µM; in experiment [9] it was 3.52 µM; in experiment [10], 0.615 µM. Also, the TGI in [1] was 5.32 µM; in experiment [2], 4.23 µM; in experiment [3], 5.23 µM; in [4], 0.912 µM; in experiment [5], 1.15 µM; in experiment [7] it was 8.4 µM. Besides, the results for the TGI in [8], in experiment [9] and in experiment [10] were 2.99 µM, 12.8 µM and 2.15 µM, respectively.

On to `COc1ccccc1CN=C1NC(=O)/C(=C/c2ccc3ncccc3c2)S1`, for which the GI50 was 4.49 µM in [1]; 8.45 µM in [2]; 6.18 µM in experiment [3]; 5.4 µM in experiment [4]; 6.02 µM in experiment [5]; 8.17 µM in experiment [6]. The GI50 in [7] was 5.7 µM; in experiment [8] it was 12.4 µM; in [9] it was 6.08 µM; in [10], 3.9 µM. Besides, the TGI in experiment [1] was 15.8 µM; in experiment [2], > 25 µM; in experiment [3], > 16.9 µM; in experiment [4], > 25 µM; in [5] it was > 21.3 µM; in experiment [6], > 19 µM. Further, the TGI in [7] was > 21 µM; in [8] it was > 21.5 µM; in [9], > 19.2 µM; in [10], > 25 µM.

For the molecule `O=C(/C=C/c1ccccc1)Nc1ncc(Cc2ccccc2)s1`, the GI50 in experiment [1] is 0.24 µM; in experiment [2], 0.138 µM; in [3], 0.149 µM; in experiment [4], 0.139 µM; in experiment [5], 0.0286 µM; in experiment [6], 0.345 µM. For the same molecule, the GI50 in experiment [7] is 0.202 µM; in [8] it was 0.196 µM; in experiment [9] it was 0.458 µM; in [10], 0.138 µM. The TGI in [1] was 3.39 µM; in experiment [2], > 32.8 µM; in experiment [3], 13 µM; in experiment [4], > 100 µM; in [5] it was 0.1 µM; in [6] it was > 100 µM. For the same molecule, the TGI in experiment [7] was 1.96 µM; in [8], 10.1 µM; in experiment [9], 6.24 µM; in experiment [10], 1.99 µM.
